The test deals with T1, cloned human H3 receptors (Homo sapiens, UniProt Q9Y5N1).
T1 construct: expressed in transfected cells
Briefly: H3 Receptor Binding (Human) Method 1. The settings on record: receptor stably expressed in SK-N-MC cells, free base forms, average of results.

Bounds are passed on as bounds.

T1 sequence (Q9Y5N1 whole entry): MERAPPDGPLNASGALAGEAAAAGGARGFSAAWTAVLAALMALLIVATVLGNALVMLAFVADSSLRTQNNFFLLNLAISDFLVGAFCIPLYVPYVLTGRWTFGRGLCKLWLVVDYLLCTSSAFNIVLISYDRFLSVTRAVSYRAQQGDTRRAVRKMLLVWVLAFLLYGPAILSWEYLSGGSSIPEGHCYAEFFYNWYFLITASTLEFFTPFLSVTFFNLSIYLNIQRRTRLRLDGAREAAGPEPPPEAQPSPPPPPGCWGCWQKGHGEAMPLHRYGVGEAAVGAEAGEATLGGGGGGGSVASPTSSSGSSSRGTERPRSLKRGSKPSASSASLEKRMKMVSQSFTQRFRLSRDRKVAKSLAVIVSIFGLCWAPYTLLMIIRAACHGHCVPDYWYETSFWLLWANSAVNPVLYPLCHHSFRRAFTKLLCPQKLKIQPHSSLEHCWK

In turn, `CC(C)(C)OC(=O)N1C[C@@H](Oc2ccc(F)cc2)C[C@H]1C(=O)N1CCN(C2CCC2)CC1` [Example 12, (2S,4S)-2-(4-Cyclobutyl-piperazine-1-carbonyl)-4-(4-fluoro-phenoxy)-pyrrolidine-1-carboxylic acid tert-butyl ester] returned an inhibitory constant (Ki) greater than 1500 nM.

With `CC(C)(C)OC(=O)N1C[C@H](Oc2ccc(F)cc2)C[C@H]1C(=O)N1CCCN(C2CCC2)CC1` [Example 15, (2S,4R)-2-(4-Cyclobutyl-[1,4]diazepane-1-carbonyl)-4-(4-fluoro-phenoxy)-pyrrolidine-1-carboxylic acid tert-butyl ester], the Ki came to 25 nM.

For the compound `CC(C)(C)OC(=O)N1C[C@@H](Oc2ccc(F)cc2)C[C@@H]1C(=O)N1CCCN(C2CCC2)CC1` [Example 18, (2R,4S)-2-(4-Cyclobutyl-[1,4]diazepane-1-carbonyl)-4-(4-fluoro-phenoxy)-pyrrolidine-1-carboxylic acid tert-butyl ester], the affinity, expressed as Ki, was 5 nM.

As for `CC(C)(C)OC(=O)N1C[C@@H](Oc2cccc(C#N)c2)C[C@@H]1C(=O)N1CCCN(C2CCC2)CC1` [Example 22, (2R,4S)-4-(3-Cyano-phenoxy)-2-(4-cyclobutyl-[1,4]diazepane-1-carbonyl)-pyrrolidine-1-carboxylic acid tert-butyl ester], the inhibitory constant (Ki) was 3 nM.

In the case of `CC(C)(C)OC(=O)N1CC(Oc2cccc(Cl)c2)C[C@H]1C(=O)N1CCCN(C2CCC2)CC1` (stereo partly drawn) [Example 42, (2S)-4-(3-Chloro-phenoxy)-2-(4-cyclobutyl-[1,4]diazepane-1-carbonyl)-pyrrolidine-1-carboxylic acid tert-butyl ester], the Ki stood at 24 nM.

As for `CC(C)(C)OC(=O)N1CC(Oc2ccc(Cl)cc2)C[C@H]1C(=O)N1CCCN(C2CCC2)CC1` (stereo partly drawn) [Example 43, (2S)-4-(4-Chloro-phenoxy)-2-(4-cyclobutyl-[1,4]diazepane-1-carbonyl)-pyrrolidine-1-carboxylic acid tert-butyl ester], the Ki is 33 nM.

`CC(C)(C)OC(=O)N1CC(Oc2ccc(Cl)c(Cl)c2)C[C@H]1C(=O)N1CCCN(C2CCC2)CC1` (stereo partly drawn) [Example 44, (2S)-2-(4-Cyclobutyl-[1,4]diazepane-1-carbonyl)-4-(3,4-dichloro-phenoxy)-pyrrolidine-1-carboxylic acid tert-butyl ester] registered a Ki of 52 nM.

Turning to `CC(C)(C)OC(=O)N1CC(Oc2ccc(C#N)cc2)C[C@H]1C(=O)N1CCCN(C2CCC2)CC1` (stereo partly drawn) [Example 45, (2S)-4-(4-Cyano-phenoxy)-2-(4-cyclobutyl-[1,4]diazepane-1-carbonyl)-pyrrolidine-1-carboxylic acid tert-butyl ester], the Ki was found to be 8 nM.

The compound `CSc1ccc(OC2C[C@@H](C(=O)N3CCCN(C4CCC4)CC3)N(C(=O)OC(C)(C)C)C2)cc1` (stereo partly drawn) [Example 46, (2S)-2-(4-Cyclobutyl-[1,4]diazepane-1-carbonyl)-4-(4-methylsulfanyl-phenoxy)-pyrrolidine-1-carboxylic acid tert-butyl ester] came in with a Ki of 35 nM.

`CC(C)(C)OC(=O)N1CC(Oc2ccccc2)C[C@H]1C(=O)N1CCCN(C2CCC2)CC1` (stereo partly drawn) [Example 47, (2S)-2-(4-Cyclobutyl-[1,4]diazepane-1-carbonyl)-4-phenoxy-pyrrolidine-1-carboxylic acid tert-butyl ester] gave an inhibitory constant (Ki) of 50 nM.

`CC(C)O[C@@H]1C[C@@H](C(=O)N2CCCN(C3CCC3)CC2)N(C(=O)OC(C)(C)C)C1` [Example 59, (2S,4R)-2-(4-Cyclobutyl-[1,4]diazepane-1-carbonyl)-4-isopropoxy-pyrrolidine-1-carboxylic acid tert-butyl ester]: the inhibition constant (Ki) worked out at 16 nM.

With `O=C([C@@H]1C[C@H](Oc2ccc(F)cc2)CN1)N1CCN(C2CCC2)CC1` [Example 63, (2S,4S)-2-(4-Cyclobutyl-piperazine-1-carbonyl)-4-(4-fluoro-phenoxy)-pyrrolidine], the affinity corresponds to a Ki of 284 nM. Compared with the last compound, the Ki is about 18-fold higher.

For the compound `O=C([C@@H]1C[C@@H](Oc2ccc(Cl)c(Cl)c2)CN1)N1CCCN(C2CCC2)CC1` [Example 92, (2S,4R)-2-(4-Cyclobutyl-[1,4]diazepane-1-carbonyl)-4-(3,4-dichloro-phenoxy)-pyrrolidine], the affinity, expressed as Ki, was 51 nM.

In the case of `O=C([C@@H]1C[C@H](Oc2ccc(Cl)c(Cl)c2)CN1)N1CCCN(C2CCC2)CC1` [Example 93, (2S,4S)-2-(4-Cyclobutyl-[1,4]diazepane-1-carbonyl)-4-(3,4-dichloro-phenoxy)-pyrrolidine], the affinity, expressed as Ki, was 88 nM. Against the preceding compound, the Ki is about 1.7-fold higher.

With `CSc1ccc(O[C@@H]2CN[C@H](C(=O)N3CCCN(C4CCC4)CC3)C2)cc1` [Example 97, (2S,4S)-2-(4-Cyclobutyl-[1,4]diazepane-1-carbonyl)-4-(4-methylsulfanyl-phenoxy)-pyrrolidine], affinity was put at a Ki of 89 nM.

As for `CN1C[C@@H](Oc2ccc(F)cc2)C[C@H]1C(=O)N1CCN(C2CCC2)CC1` [Example 107, (2S,4S)-1-Methyl-2-(4-cyclobutyl-piperazine-1-carbonyl)-4-(4-fluoro-phenoxy)-pyrrolidine], the inhibition constant Ki worked out at 523 nM.

Take `CCC(=O)N1C[C@@H](Oc2ccc(F)cc2)C[C@H]1C(=O)N1CCCN(C2CCC2)CC1` [Example 116, (2S,4S)-1-[2-(4-Cyclobutyl-[1,4]diazepane-1-carbonyl)-4-(4-fluoro-phenoxy)-pyrrolidin-1-yl]-propan-1-one]: the inhibition constant Ki is 152 nM.

`CC(C)C(=O)N1C[C@@H](Oc2ccc(F)cc2)C[C@H]1C(=O)N1CCCN(C2CCC2)CC1` [Example 117, (2S,4S)-1-[2-(4-Cyclobutyl-[1,4]diazepane-1-carbonyl)-4-(4-fluoro-phenoxy)pyrrolidin-1-yl]-2-methyl-propan-1-one]: affinity was put at a Ki of 796 nM.

Compound `CC(C)(C)CC(=O)N1C[C@@H](Oc2ccc(F)cc2)C[C@H]1C(=O)N1CCCN(C2CCC2)CC1` [Example 118, (2S,4S)-1-[2-(4-Cyclobutyl-[1,4]diazepane-1-carbonyl)-4-(4-fluoro-phenoxy)-pyrrolidin-1-yl]-3,3-dimethyl-butan-1-one] yielded an inhibition constant Ki of 816 nM.

Regarding `CC(=O)N1C[C@@H](Oc2ccc(F)cc2)C[C@H]1C(=O)N1CCN(C2CCC2)CC1` [Example 119, (2S,4S)-1-[2-(4-Cyclobutyl-piperazine-1-carbonyl)-4-(4-fluoro-phenoxy)-pyrrolidin-1-yl]-ethanone], the inhibitory constant (Ki) worked out at 300 nM.

With `CS(=O)(=O)N1C[C@@H](Oc2ccc(F)cc2)C[C@H]1C(=O)N1CCCN(C2CCC2)CC1` [Example 137, (2S,4S)-1-Methanesulfonyl-2-(4-cyclobutyl-[1,4]diazepane-1-carbonyl)-4-(4-fluoro-phenoxy)-pyrrolidine], the affinity corresponds to a Ki of 206 nM.

With `CS(=O)(=O)N1C[C@@H](Oc2ccc(F)cc2)C[C@H]1C(=O)N1CCN(C2CCC2)CC1` [Example 138, (2S,4S)-2-(4-Cyclobutyl-piperazin-1-yl)-[4-(4-fluoro-phenoxy)-1-methanesulfonyl-pyrrolidin-2-yl]-methanone], the Ki was greater than 10000 nM.

Compound `CC(C)(C)OC(=O)N1C[C@H](OCc2cccc(F)c2)C[C@@H]1C(=O)N1CCCN(C2CCC2)CC1` [Example 150, (2R,4R)-2-(4-Cyclobutyl-[1,4]diazepane-1-carbonyl)-4-(3-fluoro-benzyloxy)-pyrrolidine-1-carboxylic acid tert-butyl ester] showed a Ki of 77 nM.

Broadly, the Ki is the dissociation constant of the complex between target and ligand, obtained from inhibition or displacement.

Source of the values: patent US8236792B2, “Substituted pyrrolidine amides as modulators of the histamine H3 receptor” (Janssen Pharmaceutica NV, priority 2008, dated 2012).
